The supplement of paper PMC10627819

How the values were obtained:
Assay in all cases: fitness (endpoint OD595 vs no drug) (fraction); higher = more growth
S. aureus Newman = system: S. aureus Newman
Procedure, shortened: (§1)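 Cultures at OD595 0.01 were dispensed into 384-well plates in TSB, LB Lennox or CY and incubated at 37 °C. Every 30 min for 14 h, OD595 was read and corrected by the first reading. Fitness is the optical density at entry into stationary phase relative to the robust mean of no-drug control wells, capped at 1.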

B. subtilis 168 = system: B. subtilis 168
Procedure, shortened: as §1

S. pneumoniae D39V = system: S. pneumoniae D39V
Procedure, shortened: as §1

O=C(O)c1cn(C2CC2)c2cc(N3CCNCC3)c(F)cc2c1=O [Ciprofloxacin] + CC1(C)S[C@@H]2[C@H](NC(=O)Cc3ccccc3)C(=O)N2[C@H]1C(=O)O [Penicillin G]
fitness, S. aureus Newman
Details | first compound 0.0375 µg/mL | first compound 0.075 µg/mL | first compound 0.15 µg/mL
partner 0.0195 µg/mL | 0.66 | 0.582 | 0.0269
partner 0.039 µg/mL | 0.679 | 0.593 | 0.0263
partner 0.078 µg/mL | 0.688 | 0.593 | 0.024

O=C(O)c1cn(C2CC2)c2cc(N3CCNCC3)c(F)cc2c1=O [Ciprofloxacin] + CN(C)[C@@H]1C(O)=C(C(N)=O)C(=O)[C@@]2(O)C(O)=C3C(=O)c4c(O)ccc(Cl)c4[C@@](C)(O)[C@H]3C[C@@H]12 [Chlortetracycline]
Details | fitness
B. subtilis 168, first compound 0.0098 µg/mL, partner 0.0475 µg/mL | 0.886
B. subtilis 168, first compound 0.0098 µg/mL, partner 0.095 µg/mL | 0.82
B. subtilis 168, first compound 0.0098 µg/mL, partner 0.19 µg/mL | 0.658
B. subtilis 168, first compound 0.0195 µg/mL, partner 0.0475 µg/mL | 0.776
B. subtilis 168, first compound 0.0195 µg/mL, partner 0.095 µg/mL | 0.692
B. subtilis 168, first compound 0.0195 µg/mL, partner 0.19 µg/mL | 0.582
B. subtilis 168, first compound 0.039 µg/mL, partner 0.19 µg/mL | 0.307
S. pneumoniae D39V, first compound 0.125 µg/mL, partner 0.012 µg/mL | 0.867
S. pneumoniae D39V, first compound 0.125 µg/mL, partner 0.024 µg/mL | 0.748
S. pneumoniae D39V, first compound 0.125 µg/mL, partner 0.048 µg/mL | 0.35
S. pneumoniae D39V, first compound 0.125 µg/mL, partner 0.375 µg/mL | 0.0283
S. pneumoniae D39V, first compound 0.125 µg/mL, partner 0.75 µg/mL | 0.038
S. pneumoniae D39V, first compound 0.125 µg/mL, partner 1.5 µg/mL | 0.0287
S. pneumoniae D39V, first compound 0.25 µg/mL, partner 0.375 µg/mL | 0.0322
S. pneumoniae D39V, first compound 0.25 µg/mL, partner 0.75 µg/mL | 0.0502
S. pneumoniae D39V, first compound 0.25 µg/mL, partner 1.5 µg/mL | 0.0591
S. pneumoniae D39V, first compound 0.5 µg/mL, partner 0.048 µg/mL | 0.323
S. pneumoniae D39V, first compound 0.5 µg/mL, partner 0.75 µg/mL | 0.0332
S. pneumoniae D39V, first compound 0.5 µg/mL, partner 1.5 µg/mL | 0.0454

S. pneumoniae D39V, first compound 0.25 µg/mL, one replicate
Details | fitness
partner 0.012 µg/mL | 0.74
partner 0.024 µg/mL | 0.447
partner 0.048 µg/mL | 0.237

C[C@H]1c2cccc(O)c2C(=O)C2=C(O)[C@]3(O)C(=O)C(C(N)=O)=C(O)[C@@H](N(C)C)[C@@H]3[C@@H](O)[C@@H]21 [Doxycycline] + CC1=C(C(=O)O)N2C(=O)[C@@H](NC(=O)[C@H](N)c3ccccc3)[C@H]2SC1 [Cephalexin]
Details | fitness
B. subtilis 168, first compound 0.02 µg/mL, partner 0.125 µg/mL | 0.834
B. subtilis 168, first compound 0.02 µg/mL, partner 0.25 µg/mL | 0.871
B. subtilis 168, first compound 0.02 µg/mL, partner 0.5 µg/mL | 0.907
B. subtilis 168, first compound 0.04 µg/mL, partner 0.125 µg/mL | 0.702
B. subtilis 168, first compound 0.04 µg/mL, partner 0.25 µg/mL | 0.771
B. subtilis 168, first compound 0.04 µg/mL, partner 0.5 µg/mL | 0.711
B. subtilis 168, first compound 0.08 µg/mL, partner 0.125 µg/mL | 0.413
B. subtilis 168, first compound 0.08 µg/mL, partner 0.25 µg/mL | 0.375
S. pneumoniae D39V, first compound 0.0155 µg/mL, partner 1 µg/mL | 0.873
S. pneumoniae D39V, first compound 0.0155 µg/mL, partner 2 µg/mL | 0.474
S. pneumoniae D39V, first compound 0.0155 µg/mL, partner 4 µg/mL | 0.0211

fitness, one replicate
Details | partner 0.125 µg/mL | partner 0.25 µg/mL | partner 0.5 µg/mL | partner 1 µg/mL | partner 2 µg/mL | partner 4 µg/mL
B. subtilis 168, first compound 0.02 µg/mL | – | – | – | ≥ 1 | – | –
B. subtilis 168, first compound 0.04 µg/mL | – | – | – | 0.84 | – | –
B. subtilis 168, first compound 0.08 µg/mL | – | – | – | 0.793 | – | –
S. pneumoniae D39V, first compound 0.003875 µg/mL | – | – | – | 0.601 | 0.0976 | 0.0088
S. pneumoniae D39V, first compound 0.00775 µg/mL | – | – | – | 0.722 | 0.186 | 0.0118
S. pneumoniae D39V, first compound 0.0155 µg/mL | 0.902 | 0.867 | 0.879 | – | – | –
S. pneumoniae D39V, first compound 0.031 µg/mL | 0.916 | 0.885 | 0.887 | 0.756 | 0.634 | 0.0444
S. pneumoniae D39V, first compound 0.062 µg/mL | 0.807 | 0.808 | 0.809 | 0.667 | 0.51 | 0.0551

C[C@H]1c2cccc(O)c2C(=O)C2=C(O)[C@]3(O)C(=O)C(C(N)=O)=C(O)[C@@H](N(C)C)[C@@H]3[C@@H](O)[C@@H]21 [Doxycycline] + CO/N=C(\C(=O)N[C@@H]1C(=O)N2C(C(=O)[O-])=C(C[N+]3(C)CCCC3)CS[C@H]12)c1csc(N)n1 [Cefepime]
fitness, S. pneumoniae D39V, one replicate
Details | first compound 0.003875 µg/mL | first compound 0.00775 µg/mL | first compound 0.031 µg/mL | first compound 0.062 µg/mL
partner 0.0078 µg/mL | ≥ 1 | ≥ 1 | 0.936 | 0.84
partner 0.0155 µg/mL | ≥ 1 | 0.991 | 0.888 | 0.779
partner 0.031 µg/mL | 0.637 | 0.783 | 0.834 | 0.684

fitness, S. pneumoniae D39V
Details | partner 0.007 µg/mL | partner 0.0078 µg/mL | partner 0.014 µg/mL | partner 0.0155 µg/mL | partner 0.028 µg/mL | partner 0.031 µg/mL
first compound 0.0155 µg/mL | 0.944 | ≥ 1 | 0.934 | 0.974 | 0.858 | 0.882
first compound 0.031 µg/mL | 0.951 | – | 0.938 | – | 0.88 | –

C[C@H]1c2cccc(O)c2C(=O)C2=C(O)[C@]3(O)C(=O)C(C(N)=O)=C(O)[C@@H](N(C)C)[C@@H]3[C@@H](O)[C@@H]21 [Doxycycline] + CO[C@@]12[C@H](COC(N)=O)C3=C(C(=O)C(C)=C(N)C3=O)N1C[C@@H]1N[C@@H]12 [Mitomycin C]
fitness, S. pneumoniae D39V, one replicate
Details | first compound 0.003875 µg/mL | first compound 0.00775 µg/mL | first compound 0.031 µg/mL | first compound 0.062 µg/mL
partner 0.002 µg/mL | 0.897 | 0.823 | 0.833 | 0.64
partner 0.004 µg/mL | 0.848 | 0.828 | 0.783 | 0.616
partner 0.008 µg/mL | 0.615 | 0.622 | 0.622 | 0.456

fitness, S. pneumoniae D39V
Details | partner 0.001075 µg/mL | partner 0.002 µg/mL | partner 0.00215 µg/mL | partner 0.004 µg/mL | partner 0.0043 µg/mL | partner 0.008 µg/mL
first compound 0.0155 µg/mL | 0.863 | 0.82 | 0.819 | 0.792 | 0.717 | 0.699
first compound 0.031 µg/mL | 0.816 | – | 0.814 | – | 0.649 | –
first compound 0.062 µg/mL | 0.743 | – | 0.771 | – | 0.63 | –

C[C@H]1c2cccc(O)c2C(=O)C2=C(O)[C@]3(O)C(=O)C(C(N)=O)=C(O)[C@@H](N(C)C)[C@@H]3[C@@H](O)[C@@H]21 [Doxycycline] + COc1cccc2c1C(=O)c1c(O)c3c(c(O)c1C2=O)C[C@@](O)(C(=O)CO)C[C@@H]3O[C@H]1C[C@H](N)[C@H](O)[C@H](C)O1 [Doxorubicin]
fitness
Details | partner 0.25 µg/mL | partner 0.5 µg/mL | partner 0.625 µg/mL | partner 1 µg/mL | partner 1.25 µg/mL | partner 2.5 µg/mL
B. subtilis 168, first compound 0.02 µg/mL | – | – | 0.915 | – | 0.854 | 0.695
B. subtilis 168, first compound 0.04 µg/mL | – | – | 0.722 | – | 0.712 | 0.58
S. pneumoniae D39V, first compound 0.0155 µg/mL | 0.833 | 0.826 | – | 0.814 | – | –

fitness, S. pneumoniae D39V, one replicate
Details | partner 0.25 µg/mL | partner 0.5 µg/mL | partner 1 µg/mL
first compound 0.003875 µg/mL | 0.916 | 0.914 | 0.887
first compound 0.00775 µg/mL | 0.885 | 0.891 | 0.848
